PMC10223284, “Category-Based Toxicokinetic Evaluations of Data-Poor Per- and Polyfluoroalkyl Substances (PFAS) using Gas Chromatography Coupled with Mass Spectrometry” (Toxics, 2023)
Values joined by “and” are separate entries in the source; they are usually repeats but may differ in a detail not shown here. Identical values can stand only once.

How the values were obtained:
[1] = Abiotic loss in negative controls of the hepatocyte clearance assay (cell-free media, metabolically inactivated hepatocytes); assay type: in vitro ADME; settings: flag for stability failure in hepatocyte clearance assay controls (1 or Fst = fail, 0 = pass)
Description: The hepatic metabolic stability assay measures the loss of a parent compound over time in a substrate-depletion approach. Briefly, hepatocyte suspensions, after a viability assessment, were diluted in complete William’s medium E (containing dexamethasone and cell maintenance cocktail B) prior to addition to 96-well polypropylene plates containing an equal volume of media spiked with the test compound (1 μM assay concentration; assay cell density = 50,000 cells/100 μL) and maintained at 37 °C with shaking. At each time point, relevant plates were crashed with an equal volume of ice-cold acetonitrile, centrifuged, and supernatant transferred to a new plate prior to storage at <−70 °C until quantitative analysis. Controls, run in parallel, included cell-free (i.e., media only) and metabolically inactivated hepatocytes to evaluate abiotic chemical stability in the aqueous media matrix with and without cellular protein. In preliminary runs, these controls were run at T0 and T240 only. If significant instability was noted, the hepatocyte clearance assay was rerun, including cell-free samples at each time point and metabolically inactivated hepatocytes at selected time points.
Negative controls, including media only and metabolically inactivated hepatocyte controls, were included to monitor abiotic loss (i.e., background clearance) during the assay. Where significant compound loss occurred using the analysis described above, background clearance rates were calculated and used to background-adjust hepatic metabolic clearance rates. Where chemicals were cleared prior to the end of the analysis, at 240 min (T240), the corresponding negative control timepoint was used for background subtraction. Any chemicals displaying a 50% or more abiotic loss at T120 were deemed unstable and were excluded from further analyses.

human plasma [2] = assay: Ultracentrifugation (UC) plasma protein binding assay, fraction unbound in plasma (fup); settings: for Mean fu: fraction unbound in human plasma, ultracentrifugation, some values based on eLOQ; for Fup.Med: median fraction unbound in plasma; for Fup.Med / Fup.point: UC assay Level4; for Fup.point: point estimate of fraction unbound in plasma; for Aqueous Fraction / Aqueous Fraction, Run-specific Avg: amount measured in aqueous fraction after ultracentrifugation, unit not given; for Aqueous Fraction: replicates A, B, C; for Aqueous Fraction, Run-specific Avg: run average; for Fraction Unbound (fu), Run-specific Avg: average of one UC run
human plasma [3] = assay: Chemical stability in plasma over the UC assay time course (T5hr/T1hr); settings: for PPB_Stab_Fail: flag for stability failure in the plasma protein binding assay (1 = fail, 0 = pass); for Fstable.Med: median fraction stable in plasma, UC assay Level4; for % remaining_PPB: chemical remaining in plasma over the PPB assay time course, NS = no significant loss; for Time 1 hr / Time 1 hr, Run-specific Avg: amount measured in plasma sample at 1 hr; for Time 1 hr / Time 5 hr: replicates A, B, C; for Time 1 hr / Time 1 hr, Run-specific Avg / Time 5 hr / Time 5 hr, Run-specific Avg: unit not given; for Time 1 hr, Run-specific Avg / Time 5 hr, Run-specific Avg: run average; for Time 5 hr / Time 5 hr, Run-specific Avg: amount measured in plasma sample at 5 hr
[4] = mean T5hr/T1hr ratio in plasma over all replicates/runs

Row | Structure (SMILES) | Hep_Stab_Fail [1] | Mean fu (human plasma [2]) | Fup.Med (human plasma [2]) | Fup.point (human plasma [2]) | PPB_Stab_Fail (human plasma [3]) | Fstable.Med (human plasma [3]) | % remaining_PPB (human plasma [3]) | Aqueous Fraction (human plasma [2]) | Aqueous Fraction, Run-specific Avg (human plasma [2]) | Fraction Unbound (fu), Run-specific Avg (human plasma [2]) | Time 1 hr (human plasma [3]) | Time 1 hr, Run-specific Avg (human plasma [3]) | Time 5 hr (human plasma [3]) | Time 5 hr, Run-specific Avg (human plasma [3]) | Stability (T5hr/ T1hr), Run-specific Avg (human plasma [3]; average of one UC run) | Mean Stability (human plasma [3]; [4]) | also measured
1 | OCC(F)(F)C(F)(F)C(F)(F)C(F)(F)C(F)(F)C(F)F | 1 | 0.0537 | 0.0526 | 0.0549 | 0 | 0.222 | – | – | – | – | – | – | – | – | – | – | Mean Fu (human plasma [2]; mean fraction unbound over all replicates and runs, UC assay, human plasma): 0.054; Fraction Unbound (fu), replicates A, B, C (human plasma [2]; single replicate of one UC run (aqueous fraction / Time 5 hr)): 0.052 and 0.046 and 0.064; Stability (T5hr/ T1hr), Run-specific Avg (human plasma [3]; average of one UC run (run date in line above)): 0.870; Mean Stability (human plasma [3]; mean T5hr/T1hr ratio over all replicates and runs, plasma): 0.875; Stability (T5hr/ T1hr), replicates A, B, C (human plasma [3]; single replicate of one UC run): 0.819 and 1.002 and 0.803
2 | FC(F)(F)C(F)(F)C(F)(F)C(F)(F)C(F)(F)C(F)(F)CCS [DTXSID20379947] | – | – | – | – | 1 | – | 0% | – | – | – | – | – | – | – | – | – | –
3 | OCC(F)(F)C(F)(F)C(F)(F)C(F)(F)C(F)(F)C(F)(F)F [6:1 Fluorotelomer alcohol] | 1 | – | 0.0187 | 0.0386 | 0 | 0.204 | – | 212.981 and 210.941 and 147.734 | 190.55 | 0.0231 | 10923.7 and 9182.55 and 11162.4 | 10422.90 | 5789.66 and 11336.8 and 10690.6 | 8563.21 | 0.822 | 0.907 | –
4 | OCCCCC(F)(F)C(F)(F)C(F)(F)C(F)(F)F [4:4 Fluorotelomer alcohol] | 1 | 0.0640 | 0.0608 | 0.0704 | 0 | 0.181 | 100% | 460.145 and 470.255 and 706.065 | 545.49 | 0.064 | 11379.4 and 9453.92 and 9594.35 | 10142.56 | 9012.64 and 8012.91 and 8571.88 | 8512.77 | 0.839 | 0.850 | –
5 | OCCC(F)(F)C(F)(F)C(F)(F)C(F)(F)C(F)(F)C(F)(F)C(F)(F)C(F)(F)F [8:2 Fluorotelomer alcohol] | – | 0.0170 | 0.0168 | 0.0243 | 0 | 0.162 | 100% | 192.869 and 61.5201 and 158.809 | 137.73 | 0.017 | 10349.3 (2×) and 9635.91 | 10111.53 | 7909.09 and 8525.8 and 8231.76 | 8217.44 | 0.813 | 0.814 | –
6 | C=C(C)C(=O)OCCC(F)(F)C(F)(F)C(F)(F)C(F)(F)C(F)(F)C(F)(F)F [6:2 Fluorotelomer methacrylate] | – | 0.21 | 0.102 | 0.0856 | 0 | 0.0566 | 54% | – | – | – | – | – | – | – | – | – | –
7 | CC(C)(C)C(=O)CC(=O)C(F)(F)C(F)(F)C(F)(F)F [(Heptafluorobutanoyl)pivaloylmethane] | 1 | – | – | – | – | – | – | – | – | – | – | – | – | – | – | – | –
8 | CO[Si](C)(CCC(F)(F)C(F)(F)C(F)(F)C(F)(F)C(F)(F)C(F)(F)F)OC [DTXSID40235137] | 1 | – | – | – | 1 | – | 0% | – | – | – | – | – | – | – | – | – | –
9 | FC(F)(F)C(F)(F)CNCC(F)(F)C(F)(F)F [Bis(1H,1H-perfluoropropyl)amine] | – | 0.0477 | 0.0412 | 0.0433 | 0 | 0.999 | – | 403.75 and 491.531 and 501.978 | 465.75 | 0.05 | 11322.6 and 13421.7 and 13036.1 | 12593.46 | 11284.3 and 10114.7 and 8561.71 | 10699.45 | 0.850 | 0.799 | Mean Fu (human plasma [2]; mean fraction unbound in human plasma over all UC replicates/runs): 0.048
10 | C=CC(=O)OCC(F)(F)C(F)(F)C(F)(F)C(F)(F)C(F)(F)C(F)(F)C(F)(F)F [1H,1H-Perfluorooctyl acrylate] | 1 | – | – | – | 1 | – | 6% | – | – | – | – | – | – | – | – | – | –
11 | NCC(F)(F)C(F)(F)C(F)(F)C(F)(F)C(F)(F)C(F)(F)C(F)(F)C(F)(F)F [1H,1H-Perfluorononylamine] | – | 0.043 | 0.0402 | 0.0359 | 0 | 0.177 | 60% | 414.774 and 241.353 and 265.963 | 307.36 | 0.0431 | 12346.8 and 12130.3 and 11151.5 | 11876.18 | 7604.95 and 6828.46 and 6766.48 | 7216.71 | 0.608 | 0.598 | –
12 | NCC(F)(F)C(F)(F)C(F)(F)C(F)(F)C(F)(F)C(F)(F)F [1H,1H-Perfluoroheptylamine] | – | 0.129 | 0.129 | 0.121 | 0 | 0.0946 | 54% | 488.915 and 403.165 and 617.709 | 503.26 | 0.13 | 7913.09 and 7505.36 and 6518.71 | 7312.39 | 3934.26 and 4036.14 and 3821.62 | 3985.20 | 0.545 | 0.541 | –
13 | C=CC(=O)OCC(F)(F)C(F)(F)C(F)(F)C(F)(F)COC(=O)C=C [DTXSID80379721] | 1 | – | – | – | 1 | – | 0% | – | – | – | – | – | – | – | – | – | –
14 | CC(O)C(F)(F)C(F)(F)F (centres unmarked) [DTXSID70880134] | 1 | – | – | – | 1 | – | 0% | – | – | – | – | – | – | – | – | – | –
15 | FC(F)(F)C(F)(F)C(F)(F)CC1CO1 (centres unmarked) [1H,1H-Heptafluorobutyl epoxide] | 1 | – | – | – | 1 | – | 0% | – | – | – | – | – | – | – | – | – | –
16 | OCC(F)(F)OC(F)(F)C(F)(F)OC(F)(F)C(F)(F)OC(F)(F)F [Fluorinated triethylene glycol monomethyl ether] | 1 | – | – | – | 1 | – | 0% | – | – | – | – | – | – | – | – | – | –
